Measurements reported in patent US20160115225A1, “Methods of Reducing Methylglyoxal (MGO) Modification of Recombinant Proteins in Cell Culture” (AbbVie Inc., priority 2014, published 2016).

System: adalimumab producing cell line 1
Test: WCX-10 quantification of acidic species of adalimumab, bioreactor culture, cell line 1
Format: cell-based
Method: Two adalimumab producing cell lines were employed in the studies covered here. Upon thaw, cells were cultured in their respective growth media in a combination of vented non-baffled shake flasks (Corning) on a shaker platform at 110 RPM (cell line 1) and 140 RPM (cell line 2) and 10 L or 20 L wave bags (GE). Cultures were propagated in a 35° C., 5% CO2 incubator for cell line 1 and 36° C., 5% CO2 incubator for cell line 2 to obtain the required number of cells to be able to initiate production stage cultures. For the bioreactor (3 L Applikon) experiments (Examples 1, 2 and 3), 3 L, bioreactors (1.5 L working volume) were initiated at 35° C. (cell line 1) and 36° C. (cell line 2), 30% DO, 200 rpm, pH of 7.1. In some of the conditions, pH was ramped down to 6.8 in three days and kept at pH 6.8 thereafter. The inclusion of pH ramp for a particular condition is indicated by the final pH in the experimental design. If the final pH is 7.1, then it indicates no pH ramp was performed, whereas if the final pH is 6.8, a pH ramp was performed on day 3 from pH 7.1 to pH 6.8. In some of the conditions, a temperature shift was performed. When temperature shift was performed, the temperature was lowered to 33° C. Again, the conditions where such a temperature shift was performed can be identified from the final temperature in the experimental design. Cultures were run in extended batch mode with the addition of a desired amount of 40% glucose stock solution was fed based on glucose measurements. The harvest procedure of the reactors involved centrifugation of the culture sample at 3,000 RPM for 30 min and storage of supernatant in PETG bottles at −80° C. before submission for protein A purification, WCX-10 analysis and Lys-C peptide mapping. This method is employed towards the quantification of the acidic species and other charge variants present in cell culture harvest samples. Cation exchange chromatography was performed on a Dionex ProPac WCX-10, Analytical column (Dionex, Calif.). The mobile phases used were 10 mM Sodium Phosphate dibasic pH 7.5 (Mobile phase A) and 10 mM Sodium Phosphate dibasic, 500 mM Sodium Chloride pH 5.5 (Mobile phase B). A binary gradient (94% A, 6% B: […]; 84% A, 16% B: 20-22 min; 0% A, 100% B: 22-28 min; 94% A, 6% B: 28-34 min) was used with detection at 280 nm. Quantitation is based on the relative area percent of detected peaks. The peaks that elute at relative residence time earlier than the main peak corresponding to the drug product are together represented as the acidic peaks. Cell line 1 was cultured in IVGN production medium supplemented with or without 2DDG (0.25 g/l). Prior to this experiment, a study was performed in a shake flask culture to evaluate the dose effect of 2DDG on this cell line and optimize a dose range of reactor evaluation (data not shown). In this experiment, the cultures were performed in 3 L bioreactors in batch format (pH 7.1, DO—30%, 200 rpm) with only glucose feed as described in Example 1. Temperature shift was implemented in some tests (35° C. to 33° C. on day 5 of culture). Both 2DDG supplementation and temperature shift were employed as methods to reduce glucose consumption of the cells in culture. The hypothesis was that the reduction in glucose consumption will translate into reduced synthesis of MGO in cell culture. As a result, a reduction in MGO modification and acidic species of the protein would be achieved. In this experiment, the cultures were performed in 3 L bioreactors in batch format (DO—30%, 200 rpm) with only glucose feed as described in the materials and methods. The control condition was run at a constant temperature of 35° C., constant pH of 7.1 without any supplementation of 2DDG or arginine (condition #10). […]

In the case of `O=CC[C@@H](O)[C@H](O)[C@H](O)CO` [Test 2DDG, 2-Deoxy-D-Glucose], the “percentage of acidic species” value (Example 2, 2DDG 0.25 g/l with temperature shift 35° C. to 33° C. on day 5, Day 10 harvest, control 26.6%) is reported as 17.4%, the “percentage of acidic species” value (Example 2, 2DDG 0.25 g/l, no temperature shift, Day 10 harvest, control 26.6%) is reported as 22.9% and the “percentage of acidic species” value (Example 3, 2DDG 0.25 g/l alone, day 11 harvest, control 68.4%) is reported as 48.5%. The “percentage of acidic species” value (Example 3, 2DDG 0.25 g/l and temperature shift, day 11 harvest, control 68.4%) was 22.7%, the “percentage of acidic species” value (Example 3, 2DDG, temperature shift and arginine supplementation (4 g/l), day 11 harvest) was 12.6% and the “percentage of acidic species” value (Example 3, 2DDG, temperature shift and lower pH (6.8), day 11 harvest) was 15.2%. The “percentage of acidic species” value (Example 3, 2DDG, temperature shift, lower pH and arginine supplementation, day 11 harvest) was 12.0%.
